Common to all, as to format: cell-based
Assay [1] relates to renal carcinoma cells (786-O). Put plainly: In vitro potency (CellTiter-Glo, 96 h), 786-O. The conditions noted are these: Homo sapiens, 786-0, 96 h, CPT free drugs, renal carcinoma cells 786-O, 96 h, CellTiter-Glo. Here is the method: (§1) In vitro potency was assessed on multiple cancer cell lines. All cell lines were authenticated by STR profiling at IDEXX Bioresearch and cultured for no more than 2 months after resuscitation. Cells cultured in log-phase growth were seeded for 24 hours in 96-well plates containing […] RPMI 1640 supplemented with 20% FBS. Serial dilutions of antibody-drug conjugates in cell culture media were prepared at 4× working concentrations, and 50 μL of each dilution was added to the 96-well plates. Following addition of test articles, cells were incubated with test articles for 4 days at 37 0° C. After 96 hours, growth inhibition was assessed by CellTiterGlo® (Promega, Madison, WI) and luminescence was measured on a plate reader.
(§2) In Table 7, IC50 values for ADCs are given in ng/mL. Cell viability was determined by CellTiter-Glo staining after 96 h exposure to ADC. ND=Not Determined. Ag2 is an antibody targeting a ubiquitous and readily internalizable antigen. The cancer cell lines tested are renal carcinoma cells (786-0), melanoma cells (A2058), pancreatic cancer cells (BxPC3), non-small-cell lung cancer cells (Calu1), anaplastic large cell lymphoma cells (DEL, DELBVR, Karpas299), Hodgkin's lymphoma cells (L540cy), (Ls174T), breast cancer cells (MDA-MB-231), acute myeloid leukemia cells (MOLM-13), and B-lymphocyte cancer cells (SU-DHL4).
(§3) In vitro potency was assessed on multiple cancer cell lines. All cell lines were authenticated by STR profiling at IDEXX Bioresearch and cultured for no more than 2 months after resuscitation. Cells cultured in log-phase growth were seeded for 24 hours in 96-well plates containing […] RPMI 1640 supplemented with 20% FBS. Following addition of test articles, cells were incubated with test articles for 4 days at 37 0° C. After 96 hours, growth inhibition was assessed by CellTiterGlo® (Promega, Madison, WI) and luminescence was measured on a plate reader.
(§4) Cell viability was determined by CellTiter-Glo staining after 96 h exposure to the compound. ND=Not Determined. The cancer cell lines tested are renal carcinoma cells (786-0), melanoma cells (A2058), pancreatic cancer cells (BxPC3), non-small-cell lung cancer cells (Calu1), anaplastic large cell lymphoma cells (DEL, DELBVR, Karpas299), Hodgkin's lymphoma cells (L540cy), (Ls 174T), breast cancer cells (MDA-MB-231), acute myeloid leukemia cells (MOLM-13), B-lymphocyte cancer cells (SU-DHL4), multiple myeloma cells (MM.1R), (U266), and melanoma cells (SK-MEL-5).
as §1, with “37°” for “37 0°”
(§5) In the following Tables IC50 values for ADCs and CPT free drugs are given in ng/mL and nmol/L concentrations. Cell viability was determined by CellTiter-Glo staining after 96 h exposure to ADC or CPT free drug.
(§6) Cell viability was determined by CellTiter-Glo staining after 96 h exposure to ADC. ND=Not Determined.
For orientation: ATP-based viability assays read luminescence as a measure of living cells.

The test system of assay [2] is pancreatic cancer cells (BxPC3). Put plainly: In vitro potency (CellTiter-Glo, 96 h), BxPC3. The note with it: Homo sapiens, BXPC-3, 96 h, CPT free drugs, pancreatic cancer cells BxPC3, 96 h, CellTiter-Glo. The procedure:
as §1, §2, §3, §4
as §1, with “37°” for “37 0°”
as §5, §6

The test system of assay [3] is anaplastic large cell lymphoma cells (DEL). Put plainly: In vitro potency (CellTiter-Glo, 96 h), DEL. Here is the method:
as §1, §2, §3, §4
as §1, with “37°” for “37 0°”
as §5, §6

For assay [4], the system named is anaplastic large cell lymphoma cells (DELBVR). Put plainly: In vitro potency (CellTiter-Glo, 96 h), DELBVR. Here is the method: as §1, §2, §3, §4
as §1, with “37°” for “37 0°”
as §5, §6

Assay [5] concerns anaplastic large cell lymphoma cells (Karpas299). Put plainly: In vitro potency (CellTiter-Glo, 96 h), Karpas299. The note with it: Homo sapiens, KARPAS-299, 96 h, CPT free drugs, anaplastic large cell lymphoma cells Karpas299, 96 h, CellTiter-Glo. The procedure:
as §1, §2, §3, §4
as §1, with “37°” for “37 0°”
as §5, §6

Assay [6] relates to Hodgkin's lymphoma cells (L540cy). Put plainly: In vitro potency (CellTiter-Glo, 96 h), L540cy. The procedure: as §1, §2, §3, §4
as §1, with “37°” for “37 0°”
as §5, §6

The subject of assay [7] is Ls174T cells. Put plainly: In vitro potency (CellTiter-Glo, 96 h), Ls174T. The note with it: Homo sapiens, CPT free drugs, Ls174T cells, 96 h, CellTiter-Glo. The procedure:
as §1, §2, §3, §4
as §1, with “37°” for “37 0°”
as §5, §6

Assay [8] has as its system breast cancer cells (MDA-MB-231). Put plainly: In vitro potency (CellTiter-Glo, 96 h), MDA-MB-231. The note with it: Homo sapiens, MDA-MB-231, 96 h, CPT free drugs, breast cancer cells MDA-MB-231, 96 h, CellTiter-Glo. Here is the method:
as §1, §2, §3, §4
as §1, with “37°” for “37 0°”
as §5, §6

Assay [9] deals with acute myeloid leukemia cells (MOLM-13). Put plainly: In vitro potency (CellTiter-Glo, 96 h), MOLM-13. The conditions noted are these: Homo sapiens, MOLM-13, 96 h, CPT free drugs, acute myeloid leukemia cells MOLM-13, 96 h, CellTiter-Glo. The procedure:
as §1, §2, §3, §4
as §1, with “37°” for “37 0°”
as §5, §6

Assay [10] concerns B-lymphocyte cancer cells (SU-DHL4). Put plainly: In vitro potency (CellTiter-Glo, 96 h), SU-DHL-4. The note with it: Homo sapiens, SU-DHL-4, 96 h, CPT free drugs, B-lymphocyte cancer cells SU-DHL4, 96 h, CellTiter-Glo. The procedure:
as §1, §2, §3, §4
as §1, with “37°” for “37 0°”
as §5, §6

[11] abbreviates: read-out: MOLM-13 IC50, Table 28.
The mark [12] stands for this setting: read-out: DEL IC50, Table 28, CPT free drugs, anaplastic large cell lymphoma cells DEL, CellTiter-Glo.
Where [13] appears, read: read-out: DELBVR IC50, Table 28, CPT free drugs, anaplastic large cell lymphoma cells DELBVR, CellTiter-Glo.
[14] abbreviates: read-out: Karpas299 IC50, Table 28.
The mark [15] stands for this setting: read-out: L540cy IC50, Table 28, CPT free drugs, Hodgkin's lymphoma cells L540cy, CellTiter-Glo.
Setting [16] is: LS174T, read-out: Ls174T IC50, Table 28.
The mark [17] stands for this setting: read-out: MDAMB231 IC50, Table 28.
[18] abbreviates: read-out: SU-DHL-4 IC50, Table 28.
The mark [19] stands for this setting: read-out: DEL IC50, Table 29, CPT free drugs, anaplastic large cell lymphoma cells DEL, CellTiter-Glo.
[20] abbreviates: read-out: DELBVR IC50, Table 29, CPT free drugs, anaplastic large cell lymphoma cells DELBVR, CellTiter-Glo.
The mark [21] stands for this setting: read-out: Karpas299 IC50, Table 29.
The mark [22] stands for this setting: read-out: L540cy IC50, Table 29, CPT free drugs, Hodgkin's lymphoma cells L540cy, CellTiter-Glo.
[23] abbreviates: LS174T, read-out: Ls174T IC50, Table 29.
Setting [24] is: read-out: MDAMB231 IC50, Table 29.
Where [25] appears, read: read-out: MOLM-13 IC50, Table 29.
Where [26] appears, read: read-out: SU-DHL-4 IC50, Table 29.

Read-outs that look alike come from different tables or passages of the source.

As usually defined, the IC50 is the concentration needed to halve the response being measured. As to `CC[C@@]1(O)C(=O)OCc2c1cc1n(c2=O)Cc2c-1nc1cc3c(cc1c2CN)COC3` [Compound 2ak], the IC50 amounted to 57 nM in assay [1] (Table 28, read-out: 786-O IC50); 88 nM in assay [2] (Table 28, read-out: BxPC3 IC50); 6 nM in [3] (Table 28, CPT free drugs, anaplastic large cell lymphoma cells DEL, CellTiter-Glo, read-out: DEL IC50); 6 nM in assay [4] (Table 28, CPT free drugs, anaplastic large cell lymphoma cells DELBVR, CellTiter-Glo, read-out: DELBVR IC50); 40 nM in assay [5] (Table 28, read-out: Karpas299 IC50); 22 nM in assay [6] (Table 28, CPT free drugs, Hodgkin's lymphoma cells L540cy, CellTiter-Glo, read-out: L540cy IC50). Further, the concentration for half-maximal inhibition (IC50) in [7] (Table 28, read-out: Ls174T IC50) is 50 nM; in assay [8] (Table 28, read-out: MDAMB231 IC50) it was 147 nM; in assay [9] (setting [11]), 129 nM; in [10] (Table 28, read-out: SU-DHL-4 IC50), 11 nM.

Take `C=C(C)c1c(C)c(F)cc2nc3c(c(CN)c12)Cn1c-3cc2c(c1=O)COC(=O)[C@]2(O)CC` [Compound 2al]: the IC50 in assay [1] (read-out: 786-O IC50, Table 28) is 4 nM; in [2] (read-out: BxPC3 IC50, Table 28) it was 7 nM; in [3] (setting [12]), 1 nM; in assay [4] (setting [13]), 1 nM; in assay [5] (setting [14]), 4 nM; in assay [6] (setting [15]), 2 nM. In addition, the IC50 in [7] (setting [16]) stood at 11 nM; in assay [8] (setting [17]) it was 9 nM; in assay [9] (setting [11]), 2 nM; in assay [10] (setting [18]), 1 nM.

For the compound `C=Cc1c(C)c(F)cc2nc3c(c(CN)c12)Cn1c-3cc2c(c1=O)COC(=O)[C@]2(O)CC` [Compound 2am, (S)-11-(aminomethyl)-4-ethyl-8-fluoro-4-hydroxy-9-methyl-10-vinyl-1,12-dihydro-14H-pyrano[3′,4′:6,7]indolizino[1,2-b]quinoline-3,14(4H)-dione], the 50% inhibitory concentration (IC50) in [1] (read-out: 786-O IC50, Table 28) turned out to be 2 nM; in assay [2] (read-out: BxPC3 IC50, Table 28) it was 4 nM; in [3] (setting [12]), 0.3 nM; in assay [4] (setting [13]) it was 0.3 nM; in assay [5] (setting [14]), 2 nM; in assay [6] (setting [15]), 1 nM. For the same compound, the IC50 in [7] (setting [16]) was determined as 5 nM; in assay [8] (setting [17]), 5 nM; in assay [9] (setting [11]) it was 2 nM; in assay [10] (setting [18]) it was 1 nM.

Consider `CC[C@@]1(O)C(=O)OCc2c1cc1n(c2=O)Cc2c-1nc1cc3c(cc1c2CNC[C@H](O)CN1CCCCC1)OCO3` [Compound 7aa], for which the IC50 in assay [1] (read-out: 786-O IC50, Table 29) worked out at 131 nM; in assay [2] (read-out: BxPC3 IC50, Table 29), 66 nM; in [3] (setting [19]), 17 nM; in assay [4] (setting [20]), 19 nM; in [5] (setting [21]), 63 nM; in [6] (setting [22]), 51 nM. The IC50 was found to be 188 nM in assay [7] (setting [23]), 228 nM in assay [8] (setting [24]), 69 nM in assay [9] (setting [25]) and 19 nM in [10] (setting [26]).

`CC[C@@]1(O)C(=O)OCc2c1cc1n(c2=O)Cc2c-1nc1cc3c(cc1c2CNCCCN1CCN(C)CC1)OCO3` [Compound 7h]: the IC50 in [1] (read-out: 786-O IC50, Table 29) is 44 nM; in [2] (read-out: BxPC3 IC50, Table 29) it was 43 nM; in [3] (setting [19]), 5 nM; in assay [4] (setting [20]) it was 6 nM; in assay [5] (setting [21]), 57 nM; in assay [6] (setting [22]) it was 23 nM. Moreover, the 50% inhibitory concentration (IC50) in [7] (setting [23]) came out at 40 nM; in assay [8] (setting [24]), 67 nM; in assay [9] (setting [25]), 93 nM; in assay [10] (setting [26]), 21 nM.

On to `CC[C@@]1(O)C(=O)OCc2c1cc1n(c2=O)Cc2c-1nc1cc3c(cc1c2CNC[C@H](O)CO)OCO3` [Compound 7n], for which the IC50 in [1] (read-out: 786-O IC50, Table 29) was 66 nM; in [2] (read-out: BxPC3 IC50, Table 29), 47 nM; in [3] (setting [19]), 5 nM; in [4] (setting [20]) it was 6 nM; in [5] (setting [21]) it was 57 nM; in assay [6] (setting [22]), 23 nM. The IC50 in [7] (setting [23]) is 39 nM; in [8] (setting [24]), 96 nM; in assay [9] (setting [25]), 137 nM; in [10] (setting [26]), 21 nM.

As for `CC[C@@]1(O)C(=O)OCc2c1cc1n(c2=O)Cc2c-1nc1cc3c(cc1c2CNC(C)=O)OCO3` [Compound 12b], the IC50 in assay [1] (read-out: 786-O IC50, Table 28) was 12 nM; in assay [2] (read-out: BxPC3 IC50, Table 28), 11 nM; in assay [4] (setting [13]), 1 nM; in assay [5] (setting [14]), 8 nM; in assay [6] (setting [15]), 4 nM; in assay [7] (setting [16]), 22 nM. Also, the 50% inhibitory concentration (IC50) in assay [8] (setting [17]) is 28 nM; in [9] (setting [11]), 3 nM; in assay [10] (setting [18]), 1 nM.

Values taken from patent publication US20240207427A1, “SELECTIVE DRUG RELEASE FROM INTERNALIZED CONJUGATES OF BIOLOGICALLY ACTIVE COMPOUNDS” (priority 2021, published 2024).
